Experimental data reported in patent publication US7078195B2, “Antibiotics AA-896” (Wyeth Holdings Corporation, priority 2001, dated 2006).

How the values were obtained:
Experiment in all cases: Broth dilution MIC
Assay type in all cases: cell-based
Conditions in all cases: Mueller-Hinton broth, 18 hours at 35° C.
CNS GC 4537 = tested on: CNS GC 4537
Protocol: (§1) The in vitro antibacterial activity of AA-896-A1, AA-896-A2, AA-896-A3, AA-896-A4, AA-896-A5, AA-896-B1, AA-896-B2, AA-896-B3, AA-896-B4, AA-896-B5, AA-896-B6, AA-896-B7, AA-896-C1, AA-896-C2, AA-896-C3, AA-896-C4, AA-896-D1, AA896-D2 and AA-896-D3 is determined against a spectrum of Gram-positive and Gram-negative bacteria by a standard broth dilution method. Serial dilution of the compounds are made in Mueller-Hinton broth and inoculated with a bacterial suspension. The lowest concentration of compound that inhibited the growth of a bacterial strain after 18 hours of incubation at 35° C. is reported as the minimal inhibitory concentration (MIC) for that strain.

CNS GC 4538 = tested on: CNS GC 4538
Protocol: as §1

CNS GC 4547 = tested on: CNS GC 4547
Protocol: as §1

E. cloacae GC 3783 = tested on: E. cloacae GC 3783
Protocol: as §1

E. coli GC 2203 = tested on: E. coli GC 2203
Protocol: as §1

E. coli GC 3226 = tested on: E. coli GC 3226
Protocol: as §1

E. coli GC 4559 = tested on: E. coli GC 4559
Protocol: as §1

E. coli GC 4560 = tested on: E. coli GC 4560
Protocol: as §1

E. faecalis GC 242 = tested on: E. faecalis GC 242
Protocol: as §1

E. faecalis GC 4555 = tested on: E. faecalis GC 4555
Protocol: as §1

E. faecalis GC 842 = tested on: E. faecalis GC 842
Protocol: as §1

K. pneumoniae GC 4534 = tested on: K. pneumoniae GC 4534
Protocol: as §1

M. morganii GC 4531 = tested on: M. morganii GC 4531
Protocol: as §1

P. aeruginosa GC 2214 = tested on: P. aeruginosa GC 2214
Protocol: as §1

P. aeruginosa GC 4532 = tested on: P. aeruginosa GC 4532
Protocol: as §1

P. rettgeri GC 4530 = tested on: P. rettgeri GC 4530
Protocol: as §1

S. aureus GC 1131 = tested on: S. aureus GC 1131
Protocol: as §1

S. aureus GC 2216 = tested on: S. aureus GC 2216
Protocol: as §1

S. aureus GC 4536 = tested on: S. aureus GC 4536
Protocol: as §1

S. marcescens GC 4077 = tested on: S. marcescens GC 4077
Protocol: as §1

Compound	Antimicrobial Activity (MIC) (CNS GC 4537)	Antimicrobial Activity (MIC) (CNS GC 4538)	Antimicrobial Activity (MIC) (CNS GC 4547)	Antimicrobial Activity (MIC) (E. cloacae GC 3783)	Antimicrobial Activity (MIC) (E. coli GC 2203)	Antimicrobial Activity (MIC) (E. coli GC 3226)	Antimicrobial Activity (MIC) (E. coli GC 4559)	Antimicrobial Activity (MIC) (E. coli GC 4560)	Antimicrobial Activity (MIC) (E. faecalis GC 242)	Antimicrobial Activity (MIC) (E. faecalis GC 4555)	Antimicrobial Activity (MIC) (E. faecalis GC 842)	Antimicrobial Activity (MIC) (K. pneumoniae GC 4534)	Antimicrobial Activity (MIC) (M. morganii GC 4531)	Antimicrobial Activity (MIC) (P. aeruginosa GC 2214)	Antimicrobial Activity (MIC) (P. aeruginosa GC 4532)	Antimicrobial Activity (MIC) (P. rettgeri GC 4530)	Antimicrobial Activity (MIC) (S. aureus GC 1131)	Antimicrobial Activity (MIC) (S. aureus GC 2216)	Antimicrobial Activity (MIC) (S. aureus GC 4536)	Antimicrobial Activity (MIC) (S. marcescens GC 4077)
CC(C)CC(NC(=O)C(NC(=O)NC(C(=O)O)C(C)C)C1CCNC(=N)N1)C(=O)NCCCNC(C(=O)O)C(OC1OC(CN)C(O)C1O)C1OC(n2ccc(=O)[nH]c2=O)C(O)C1O [AA-896-D2, 5-O-[5-Amino-5-deoxy-β-D-ribofuranosyl]-6-[[3-[2-[2-[[(1-carboxy-2-methylpropyl)-carbamoyl]amino]-2-(hexahydro-2-iminopyrimidin-4-yl)acetamido]-4-methylpentanamido]-propyl]amino]-1,6-dideoxy-1-(3,4-dihydro-2,4-dioxopyrimidin-1(2H)-yl)-β-D-heptofuran-uronic acid]	>32 µg/mL	>32 µg/mL	>32 µg/mL	16 µg/mL	16 µg/mL	16 µg/mL	32 µg/mL	0.25 µg/mL	>32 µg/mL	>32 µg/mL	>32 µg/mL	>32 µg/mL	>32 µg/mL	32 µg/mL	32 µg/mL	>32 µg/mL	>32 µg/mL	>32 µg/mL	>32 µg/mL	>32 µg/mL
CC(C)C(NC(=O)NC(C(=O)NC(C(=O)NCCCNC(C(=O)O)C(O[C@@H]1O[C@H](CN)[C@@H](O)[C@H]1O)C1OC(n2ccc(=O)[nH]c2=O)C(O)C1O)C(O)C(C)C)C1CCNC(=N)N1)C(=O)O (stereo partly drawn) [AA-896-C2, 5-O-[5-Amino-5-deoxy-β-D-ribofuranosyl]-6-[[3-[2-[2-[[(1-carboxy-2-methylpropyl)-carbamoyl]amino]-2-(hexahydro-2-iminopyrimidin-4-yl)acetamido]-3-hydroxy-4-methyl-pentanamido]propyl]amino]-1,6-dideoxy-1-(3,4-dihydro-2,4-dioxopyrimidin-1(2H)-yl)-β-D-heptofuranuronic acid]	>32 µg/mL	>32 µg/mL	>32 µg/mL	16 µg/mL	16 µg/mL	16 µg/mL	>32 µg/mL	2 µg/mL	>32 µg/mL	>32 µg/mL	>32 µg/mL	>32 µg/mL	>32 µg/mL	32 µg/mL	32 µg/mL	>32 µg/mL	>32 µg/mL	>32 µg/mL	>32 µg/mL	>32 µg/mL
COC1C(OC(C(NCCCNC(=O)C(NC(=O)C(NC(=O)NC(C(=O)O)C(C)C)C2CCNC(=N)N2)C(O)C(C)C)C(=O)O)C2OC(n3ccc(=O)[nH]c3=O)C(O)C2O)OC(CN)C1O [AA-896-C1, 5-O-[5-Amino-5-deoxy-2-O-methyl-β-D-ribofuranosyl]-6-[[3-[2-[2-[[(1-carboxy-2-methyl-propyl)carbamoyl]amino]-2-(hexahydro-2-iminopyrimidin-4-yl)acetamido]-3-hydroxy-4-methylpentanamido]propyl]amino]-1,6-dideoxy-1-(3,4-dihydro-2,4-dioxopyrimidin-1(2H)-yl)-β-D-heptofuranuronic acid]	>32 µg/mL	>32 µg/mL	>32 µg/mL	32 µg/mL	32 µg/mL	32 µg/mL	>32 µg/mL	1 µg/mL	>32 µg/mL	>32 µg/mL	>32 µg/mL	>32 µg/mL	>32 µg/mL	32 µg/mL	>32 µg/mL	>32 µg/mL	>32 µg/mL	>32 µg/mL	>32 µg/mL	>32 µg/mL
5-O-[5-Amino-5-deoxy-β-D-ribofuranosyl]-6-[[3-[3-[[13-(carbamimidoylhydroxyamino)-tridecanoyl]oxy]-2-[2-[[(1-carboxy-2-methylpropyl)carbamoyl]amino]-2-(hexahydro-2-iminopyrimidin-4-yl)acetamido]-4-methylpentanamido]propyl]amino]-1,6-dideoxy-1-(3,4-dihydro-2,4-dioxopyrimidin-1(2H)-yl)-β-D-heptofuranuronic acid [AA-896-A4]	4 µg/mL	2 µg/mL	8 µg/mL	1 µg/mL	16 µg/mL	8 µg/mL	32 µg/mL	0.12 µg/mL	32 µg/mL	32 µg/mL	32 µg/mL	>32 µg/mL	>32 µg/mL	32 µg/mL	32 µg/mL	>32 µg/mL	8 µg/mL	4 µg/mL	8 µg/mL	>32 µg/mL
CCC(C)CCCCC(=O)OC(C(C)C)C(NC(=O)C(NC(=O)NC(C(=O)O)C(C)C)C1CCNC(=N)N1)C(=O)NCCCNC(C(=O)O)C(O[C@@H]1O[C@H](CN)[C@@H](O)[C@H]1OC)C1OC(n2ccc(=O)[nH]c2=O)C(O)C1O (stereo partly drawn) [AA-896-B3, 5-O-[5-Amino-5-deoxy-2-O-methyl-β-D-ribofuranosyl]-6-[[3-[2-[2-[[(1-carboxy-2-methyl-propyl)carbamoyl]amino]-2-(hexahydro-2-iminopyrimidin-4-yl)acetamido]-4-methyl-3-[(6-methyloctanoyl)oxy]pentanamido]propyl]amino]-1,6-dideoxy-1-(3,4-dihydro-2,4-dioxopyrimidin-1(2H)-yl)-β-D-heptofuranuronic acid]	>32 µg/mL	>32 µg/mL	>32 µg/mL	16 µg/mL	>32 µg/mL	32 µg/mL	>32 µg/mL	0.06 µg/mL	>32 µg/mL	>32 µg/mL	>32 µg/mL	>32 µg/mL	>32 µg/mL	>32 µg/mL	>32 µg/mL	>32 µg/mL	>32 µg/mL	>32 µg/mL	>32 µg/mL	>32 µg/mL
